What was measured:
[1] = tested on: T-cell lymphoma (non-Hodgkin's); assay: Treatment of T-Cell Lymphoma in a human; type: in vivo; conditions: 2 mg/kg per day, six 21 day cycles
Experimental: A human suffering from T-cell lymphoma (non-Hodgkin's) is administered 2 mg/kg per day of 9-ING-41 for six 21 day cycles. After treatment, the human's TCL is in remission.

[2] = tested on: TCL and MCL lines; assay: Apoptosis assay in TCL and MCL lines; type: cell-based, human; conditions: low doses, 48 hours
Experimental: Unstimulated peripheral blood B- and T-lymphocytes isolated from a healthy donor were used as normal control. Pro-apoptotic effect of the GSK3 inhibitor 9-ING-41 in various MCL and TCL lines (A) and DLBCL lines (B). (C) Cell proliferation profile of various lymphoma cell lines upon treatment with 9-ING-41. Results (A-C) are from 3 independent experiments.
(§1) Cells were seeded at 5×10^5 cells/well in 24 well plates, and incubated with 9-ING-41 at indicated concentrations for 48 hours. The cells were then stained with FITC conjugated Annexin V (Life Technologies) and Propidium Iodide followed by analysis on a BD FACS Calibur flow cytometer.
(§2) Given that both GSK3α and GSK3β are overexpressed in lymphoma cells, and that both enzymes are implicated in multiple signaling pathways critical for cell functions, whether GSK3α and GSK3β are functionally supporting the survival and proliferation of lymphoma cells was examined. […] The inhibitory concentrations of 9-ING-41 at half of the maximal effect (IC50) on cell survival of various lymphoma cell lines was calculated (Table 1).

[3] = tested on: phospho-c-MYC in KPUM-UH1 cells; assay: Western blot analysis of c-MYC; type: cell-based; conditions: KPUM-UH1 double-hit lymphoma cell line
Experimental: c-MYC levels were analyzed in KPUM-UH1 cells via western blot for 9-ING-41 alone and the combination of 9ING-41 with either Venetoclax or BAY-1143572. Around 10 million cells were spun down at 200 rcf for 5 minutes and rinsed once with PBS before lysing in 50 μl of Millipore Milliplex MAP lysis buffer supplemented with protease and phosphatase inhibitors (Roche). Protein denatured in 4× sample buffer supplemented with β-mercaptoethanol (Bio-Rad) was loaded per well. Bio-Rad stain-free Criterion 4-20% precast gels were used. After running the gel at 140 volts for 90 minutes, Bio-Rad gel imager was used to activate the stain-free technology to visualize the total protein levels loaded in the gel. A nitrocellulose turbo-transfer pack and system (Bio-Rad) was then used to transfer the proteins to the membrane, and 5% w/v dry milk in Tris-buffered saline-0.1% Tween 20 (TBS-T) was used to block the membranes for 1 hour. Membranes were then incubated with the primary antibody diluted in 5% BSA in TBS-T overnight. Membranes were then rinsed in TBS-T 3 times (one 15 minute wash and two 5 minutes washes) and then incubated with the corresponding secondary antibody-conjugated with HRP for 1 hour and rinsed with TBS-T as before. […] Quantification of the band intensities were performed using Image J software (NIH).

[4] = Xenograft mice, 20 mg/kg intravenous, within 30 minutes; cited from earlier work
[5] = tested on: Karpas-299; assay: Apoptosis assay (Annexin V/PI), cell survival; type: cell-based; conditions: Homo sapiens; Karpas-299 (TCL), 48 hours
Experimental: as §1
(§3) The IC50S of 9-ING-41 on cell survival and proliferation was calculated using an on-line IC50 calculation tool (https://www.aatbio.com/tools/ic50-calculator/).
as §2

[6] = tested on: OCI-LY19; assay: Apoptosis assay (Annexin V/PI), cell survival; type: cell-based; conditions: Homo sapiens; OCI-LY19 (DLBCL), 48 hours
Experimental: as §1, §3, §2

[7] = tested on: Jeko; assay: Apoptosis assay (Annexin V/PI), cell survival; type: cell-based; conditions: Homo sapiens; Jeko (MCL), 48 hours
Experimental: as §1, §3, §2

[8] = tested on: SeAx; assay: Apoptosis assay (Annexin V/PI), cell survival; type: cell-based; conditions: Homo sapiens; SeAx (TCL), 48 hours
Experimental: as §1, §3, §2

[9] = tested on: SU-DHL6; assay: Apoptosis assay (Annexin V/PI), cell survival; type: cell-based; conditions: Homo sapiens, SU-DHL-6; SU-DHL6 (DLBCL), 48 hours
Experimental: as §1, §3, §2

[10] = tested on: OCI-Ly3; assay: Apoptosis assay (Annexin V/PI), cell survival; type: cell-based; conditions: Homo sapiens; OCI-Ly3 (DLBCL), 48 hours
Experimental: as §1, §3, §2

[11] = tested on: Mino; assay: Apoptosis assay (Annexin V/PI), cell survival; type: cell-based; conditions: Homo sapiens; Mino (MCL), 48 hours
Experimental: as §1, §3, §2

[12] = tested on: OCI-LY1; assay: Apoptosis assay (Annexin V/PI), cell survival; type: cell-based; conditions: Homo sapiens; OCI-LY1 (DLBCL), 48 hours
Experimental: as §1, §3, §2

[13] = tested on: Granta-519; assay: Apoptosis assay (Annexin V/PI), cell survival; type: cell-based; conditions: Homo sapiens; Granta-519 (MCL), 48 hours
Experimental: as §1, §3, §2

Cn1cc(C2=C(c3coc4ccc(F)cc34)C(=O)NC2=O)c2cc3c(cc21)OCO3 [9-ING-41, 3-(5-Fluorobenzofuran-3-yl)-4-(5-methyl-5H-[1,3]dioxolo[4,5-f]indol-7-yl)pyrrole-2,5-dione]
Outcome after treatment [1]: in remission
Apoptosis in TCL and MCL lines [2]: induced apoptosis
Effect on phospho-c-MYC [3]: phospho-c-MYC is modified
9-ING-41 concentration in plasma [4]: around 8 μM
9-ING-41 concentration in the brain [4]: around 40 μM
IC50 [5]: 3.34 µM
IC50 [6]: 2.21 µM
IC50 [7]: 1.28 µM
IC50 [8]: 1.6 µM
IC50 [9]: 1.58 µM
IC50 [10]: 3.76 µM
IC50 [11]: 0.55 µM
IC50 [12]: 3.05 µM
IC50 [13]: 0.77 µM
